Data from ChEMBL document CHEMBL4196002, “Design, synthesis, mechanistic and histopathological studies of small-molecules of novel indole-2-carboxamides and pyrazino[1,2-a]indol-1(2H)-ones as potential anticancer agents effecting the reactive oxygen species production” (Eur J Med Chem, 2018).
pIC50: −log10 of the molar value.

Columns and labels:
[1] = Cytotoxicity against human MCF10A cells assessed as cell viability at 50 uM after 96 hrs by MTT assay relative to control; assay type: cell-based, MCF-10A; details: read-out: Activity
[2] = Inhibition of ROS generation in human PMN at 0.78 ug/ml after 50 mins by luminol-based chemiluminescence assay relative to control; assay type: functional
[3] = Inhibition of ROS generation in human PMN at 1.56 ug/ml after 50 mins by luminol-based chemiluminescence assay relative to control; assay type: functional
[4] = system: PC-3; test: Antiproliferative activity human PC3 cells after 48 hrs by propidium iodide staining-based fluorescence assay; assay type: functional, cell-based; details: PC-3, 48 h
[5] = system: A549; test: Antiproliferative activity human A549 cells after 48 hrs by propidium iodide staining-based fluorescence assay; assay type: functional, cell-based; details: A549, 48 h
[6] = system: MCF7; test: Antiproliferative activity human MCF7 cells after 48 hrs by propidium iodide staining-based fluorescence assay; assay type: functional, cell-based; details: MCF7, 48 h
[7] = system: MIA PaCa-2; test: Antiproliferative activity human MIAPaCa2 cells after 48 hrs by propidium iodide staining-based fluorescence assay; assay type: functional, cell-based; details: MIA PaCa-2, 48 h
[8] = system: HT-29; test: Antiproliferative activity human HT-29 cells after 48 hrs by propidium iodide staining-based fluorescence assay; assay type: functional, cell-based; details: HT-29, 48 h
[9] = Inhibition of ROS generation in human PMN at 3.13 ug/ml after 50 mins by luminol-based chemiluminescence assay relative to control; assay type: functional
[10] = Inhibition of ROS generation in human PMN at 6.25 ug/ml after 50 mins by luminol-based chemiluminescence assay relative to control; assay type: functional
[11] = Inhibition of ROS generation in human PMN at 12.5 ug/ml after 50 mins by luminol-based chemiluminescence assay relative to control; assay type: functional
[12] = (§1) Inhibition of ROS generation in human PMN after 50 mins by luminol-based chemiluminescence assay; assay type: functional
[13] = species on record: Homo sapiens; test: as §1; assay type: functional
[14] = Antioxidant activity assessed as DPPH radical scavenging activity at 100 uM after 30 mins dark incubation; assay type: functional
[15] = Antioxidant activity assessed as DPPH radical scavenging activity at 50 uM after 30 mins dark incubation; assay type: functional
[16] = Antioxidant activity assessed as DPPH radical scavenging activity at 10 uM after 30 mins dark incubation; assay type: functional
[17] = target: Tubulin (Homo sapiens) (UniProt P68371+Q9H4B7+P0DPH7+P68366+Q13509+Q71U36+P04350+Q3ZCM7+P07437+P68363+Q9BQE3+Q6PEY2+Q13885+Q9BVA1+Q9BUF5); test: Inhibition of tubulin (unknown origin) polymerization assessed as tubulin assembly rate by fluorescence assay; assay type: protein-complex assay
[18] = target: Epidermal growth factor receptor (Homo sapiens, UniProt P00533); test: Inhibition of His6-tagged EGFR (unknown origin) cytoplasmic domain expressed in baculovirus infected Sf9 insect cells after 10 mins followed by addition of ATP-MgCl2 and measured after 1 hr by time-resolved fluorometric analysis
[19] = target: Serine/threonine-protein kinase B-raf (Mus musculus, UniProt P28028, V600E); test: Inhibition of mouse full-length GST-tagged BRAF V600E mutant using recombinant human full length N-terminal His-tagged MEK1 as substrate preincubated for 60 mins followed by substrate addition and measured after 25 mins by ELISA
Sequence of Serine/threonine-protein kinase B-raf (P28028 whole entry, looked up, stated change not applied): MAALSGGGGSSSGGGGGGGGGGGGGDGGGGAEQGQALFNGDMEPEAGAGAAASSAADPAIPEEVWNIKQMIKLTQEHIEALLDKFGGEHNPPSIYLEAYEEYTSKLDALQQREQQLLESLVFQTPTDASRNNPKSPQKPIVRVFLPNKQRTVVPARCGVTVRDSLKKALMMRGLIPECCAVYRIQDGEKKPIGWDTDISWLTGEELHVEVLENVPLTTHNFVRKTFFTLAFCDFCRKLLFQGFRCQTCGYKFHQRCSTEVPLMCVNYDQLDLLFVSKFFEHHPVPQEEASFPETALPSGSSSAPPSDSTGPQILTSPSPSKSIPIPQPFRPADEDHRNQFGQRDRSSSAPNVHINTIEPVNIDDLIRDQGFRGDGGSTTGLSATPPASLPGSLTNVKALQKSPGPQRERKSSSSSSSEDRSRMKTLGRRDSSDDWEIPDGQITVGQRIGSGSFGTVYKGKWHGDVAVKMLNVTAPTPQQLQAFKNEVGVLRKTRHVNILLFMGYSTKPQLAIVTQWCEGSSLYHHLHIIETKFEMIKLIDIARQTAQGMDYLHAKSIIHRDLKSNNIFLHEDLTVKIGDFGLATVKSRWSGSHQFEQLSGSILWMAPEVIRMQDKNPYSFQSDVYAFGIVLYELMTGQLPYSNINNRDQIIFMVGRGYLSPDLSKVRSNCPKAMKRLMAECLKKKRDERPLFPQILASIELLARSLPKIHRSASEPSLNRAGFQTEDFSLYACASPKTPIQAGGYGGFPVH

Sequence of Epidermal growth factor receptor (P00533 whole entry, the tested form may be a part): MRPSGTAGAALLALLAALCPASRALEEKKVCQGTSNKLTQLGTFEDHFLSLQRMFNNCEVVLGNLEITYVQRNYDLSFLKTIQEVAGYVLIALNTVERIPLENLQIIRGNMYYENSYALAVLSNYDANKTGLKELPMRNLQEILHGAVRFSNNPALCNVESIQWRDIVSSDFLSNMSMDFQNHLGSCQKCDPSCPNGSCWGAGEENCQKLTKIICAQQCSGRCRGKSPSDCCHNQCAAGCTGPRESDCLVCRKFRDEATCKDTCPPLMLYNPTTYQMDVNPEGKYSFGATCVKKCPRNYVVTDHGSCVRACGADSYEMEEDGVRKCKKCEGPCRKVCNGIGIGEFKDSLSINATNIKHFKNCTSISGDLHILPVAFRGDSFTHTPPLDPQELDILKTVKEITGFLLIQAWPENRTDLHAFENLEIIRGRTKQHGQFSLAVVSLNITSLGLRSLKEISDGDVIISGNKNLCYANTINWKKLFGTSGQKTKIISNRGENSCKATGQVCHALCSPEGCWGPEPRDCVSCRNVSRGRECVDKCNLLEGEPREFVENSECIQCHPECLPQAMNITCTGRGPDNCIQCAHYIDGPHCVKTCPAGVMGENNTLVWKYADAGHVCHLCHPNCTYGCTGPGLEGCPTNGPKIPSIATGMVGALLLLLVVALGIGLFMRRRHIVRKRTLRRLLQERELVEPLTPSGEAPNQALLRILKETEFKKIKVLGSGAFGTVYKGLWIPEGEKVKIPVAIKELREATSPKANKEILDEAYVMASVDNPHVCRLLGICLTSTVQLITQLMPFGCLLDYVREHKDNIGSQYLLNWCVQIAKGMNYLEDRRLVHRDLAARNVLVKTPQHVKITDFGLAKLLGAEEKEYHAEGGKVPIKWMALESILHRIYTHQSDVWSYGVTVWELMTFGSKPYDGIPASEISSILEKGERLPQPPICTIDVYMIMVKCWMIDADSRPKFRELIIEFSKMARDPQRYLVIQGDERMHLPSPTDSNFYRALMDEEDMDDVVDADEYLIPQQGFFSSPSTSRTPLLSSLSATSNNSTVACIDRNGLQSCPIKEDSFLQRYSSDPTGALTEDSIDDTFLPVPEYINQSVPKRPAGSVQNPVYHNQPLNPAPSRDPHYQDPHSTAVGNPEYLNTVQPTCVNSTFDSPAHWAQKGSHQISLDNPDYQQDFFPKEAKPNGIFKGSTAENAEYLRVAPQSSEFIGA

Row | Structure (SMILES) | pIC50 [4] | pIC50 [5] | pIC50 [6] | pIC50 [7] | pIC50 [8] | pIC50 [12] | Activity [17] [a.u.] | pIC50 [18] | pIC50 [19] | viability at 96 h, 50 µM [1] [%] | inhibition at 0.78 µg/mL [2] [%] | inhibition at 1.56 µg/mL [3] [%] | inhibition at 3.13 µg/mL [9] [%] | inhibition at 6.25 µg/mL [10] [%] | inhibition at 12.5 µg/mL [11] [%] | inhibition [13] | Activity [14] [%] | Activity [15] [%] | Activity [16] [%]
1 | O=c1[nH]c(Cc2ccccc2)cn2c1cc1ccccc12 | 4.87 | 4.83 | 4.87 | 4.86 | 4.86 | 4.72 |  |  |  | 92 | 14 | 27 | 40 | 51 | 68 | Dose-dependent effect | 65.9 | 52.4 | 29.3
2 | Cc1c(C)c2c(c(C)c1O)CCC(C)(C(=O)O)O2 (stereo not drawn) |  |  |  |  |  |  |  |  |  |  |  |  |  |  |  |  | 95.2 | 82.5 | 77.6
3 | CCc1c(C(=O)NC(CO)Cc2ccc(Cl)cc2)[nH]c2ccc(Cl)cc12 (stereo not drawn) | 4.75 | 4.53 | 4.45 | 4.44 | 4.46 | 4.93 |  |  |  | 92 | 22 | 28 | 43 | 58 | 74 | Dose-dependent effect | 79.9 | 59.3 | 41.4
4 | CCc1c(C(=O)NC(CO)Cc2ccccc2)[nH]c2ccc(C(F)(F)F)cc12 (stereo not drawn) | 5.96 | 5.82 | 5.96 | 5.89 | 5.72 | 5.01 | 2650 | 6.05 | 6.00 | 80 | 26 | 31 | 47 | 62 | 79 | Dose-dependent effect | 78 | 61.7 | 43.4
5 | CCc1c(C(=O)NC(CO)Cc2ccccc2)[nH]c2ccc(Cl)cc12 (stereo not drawn) | 5.05 | 4.94 | 4.89 | 4.90 | 4.91 | 4.89 |  |  |  | 87 | 20 | 31 | 42 | 55 | 68 | Dose-dependent effect | 70.2 | 58.7 | 39.9
6 | CCc1c2cc(Cl)ccc2n2cc(Cc3ccccc3)[nH]c(=O)c12 | 5.29 | 5.22 | 5.12 | 5.08 | 5.11 | 4.86 |  |  |  | 89 | 14 | 27 | 37 | 60 | 72 | Dose-dependent effect | 71.6 | 59 | 40.8

The remaining compounds from weak to strong by pIC50 [12], led by results:

Row | pIC50 [4] | pIC50 [5] | pIC50 [6] | pIC50 [7] | pIC50 [8] | pIC50 [12] | Activity [17] [a.u.] | pIC50 [18] | pIC50 [19] | Structure (SMILES) | viability at 96 h, 50 µM [1] [%] | inhibition at 0.78 µg/mL [2] [%] | inhibition at 1.56 µg/mL [3] [%] | inhibition at 3.13 µg/mL [9] [%] | inhibition at 6.25 µg/mL [10] [%] | inhibition at 12.5 µg/mL [11] [%] | inhibition [13] | Activity [14] [%] | Activity [15] [%] | Activity [16] [%]
7 | 4.78 | 4.81 | 4.79 | 4.73 | 4.77 | 4.64 |  |  |  | O=C(NC(CO)Cc1ccccc1)c1cc2ccccc2[nH]1 (stereo not drawn) | 96 | 9 | 21 | 32 | 47 | 64 | Dose-dependent effect | 64.6 | 50.1 | 24.8
8 | 5.62 | 5.72 | 5.85 | 5.59 | 5.62 | 4.95 | 2420 | 6.10 | 5.32 | O=C(NC(CO)Cc1ccccc1)c1cc2cc(Cl)ccc2[nH]1 (stereo not drawn) | 89 | 25 | 33 | 48 | 60 | 77 | Dose-dependent effect | 77.5 | 61.2 | 50.2
9 | 5.23 | 5.32 | 5.33 | 5.26 | 5.19 | 4.97 |  |  |  | CCc1c(C(=O)NC(CO)Cc2ccccc2)[nH]c2ccc(Br)cc12 (stereo not drawn) | 85 | 19 | 31 | 45 | 55 | 67 | Dose-dependent effect | 78.5 | 67.4 | 49.2
10 |  |  |  |  |  | 5.01 |  |  |  | CC(=O)Oc1ccccc1C(=O)O [ASPIRIN] |  | 33 | 46 | 63 | 85 | 92 |  |  |  | 
11 | 4.80 | 4.55 | 4.58 | 4.47 | 4.56 | 5.11 |  |  |  | CCc1c2cc(Cl)ccc2n2cc(Cc3ccc(Cl)cc3)[nH]c(=O)c12 | 90 | 25 | 37 | 52 | 68 | 83 | Dose-dependent effect | 84.5 | 70.1 | 50.4
12 | 6.00 | 5.85 | 6.05 | 5.96 | 6.05 | 5.19 | 1920 | 5.41 | 6.05 | CCc1c2cc(C(F)(F)F)ccc2n2cc(Cc3ccccc3)[nH]c(=O)c12 | 79 | 31 | 42 | 56 | 72 | 89 | Dose-dependent effect | 84.4 | 72.9 | 52.2
13 | 5.47 | 5.35 | 5.44 | 5.34 | 5.32 | 5.19 |  |  |  | CCc1c2cc(Br)ccc2n2cc(Cc3ccccc3)[nH]c(=O)c12 | 82 | 25 | 44 | 52 | 61 | 70 | Dose-dependent effect | 82.4 | 73.9 | 54.5
14 | 5.60 | 5.54 | 5.55 | 5.59 | 5.54 | 5.23 | 2570 | 6.30 | 5.43 | Cc1c(C(=O)NC(CO)Cc2ccccc2)[nH]c2ccc(Cl)cc12 (stereo not drawn) | 90 | 39 | 45 | 58 | 65 | 74 | Dose-dependent effect | 86.4 | 72.7 | 55.4
